Laboratory results taken from ChEMBL document CHEMBL3638630 (2014).

Experiments:
[1] = target: Stromelysin-1 (Homo sapiens, UniProt P08254); test: (§1) Inhibition Assay: The inhibition tests and the evaluation of the inhibition constants (Ki) on the various MMPs were carried out as described by Devel et al. (Devel et al. 2006 J. Biol. Chem. (7)).
[2] = target: Macrophage metalloelastase (Homo sapiens, UniProt P39900); test: as §1
[3] = target: Matrix metalloproteinase-14 (Homo sapiens, UniProt P50281); test: as §1
[4] = target: Stromelysin-2 (Homo sapiens, UniProt P09238); test: as §1
[5] = target: Neutrophil collagenase (Homo sapiens, UniProt P22894); test: as §1
[6] = target: Collagenase 3 (Homo sapiens, UniProt P45452); test: as §1
[7] = target: 72 kDa type IV collagenase (Homo sapiens, UniProt P08253); test: as §1
[8] = target: Matrix metalloproteinase-9 (Homo sapiens, UniProt P14780); test: as §1
Matrix metalloproteinase-9, sequence (P14780 whole entry): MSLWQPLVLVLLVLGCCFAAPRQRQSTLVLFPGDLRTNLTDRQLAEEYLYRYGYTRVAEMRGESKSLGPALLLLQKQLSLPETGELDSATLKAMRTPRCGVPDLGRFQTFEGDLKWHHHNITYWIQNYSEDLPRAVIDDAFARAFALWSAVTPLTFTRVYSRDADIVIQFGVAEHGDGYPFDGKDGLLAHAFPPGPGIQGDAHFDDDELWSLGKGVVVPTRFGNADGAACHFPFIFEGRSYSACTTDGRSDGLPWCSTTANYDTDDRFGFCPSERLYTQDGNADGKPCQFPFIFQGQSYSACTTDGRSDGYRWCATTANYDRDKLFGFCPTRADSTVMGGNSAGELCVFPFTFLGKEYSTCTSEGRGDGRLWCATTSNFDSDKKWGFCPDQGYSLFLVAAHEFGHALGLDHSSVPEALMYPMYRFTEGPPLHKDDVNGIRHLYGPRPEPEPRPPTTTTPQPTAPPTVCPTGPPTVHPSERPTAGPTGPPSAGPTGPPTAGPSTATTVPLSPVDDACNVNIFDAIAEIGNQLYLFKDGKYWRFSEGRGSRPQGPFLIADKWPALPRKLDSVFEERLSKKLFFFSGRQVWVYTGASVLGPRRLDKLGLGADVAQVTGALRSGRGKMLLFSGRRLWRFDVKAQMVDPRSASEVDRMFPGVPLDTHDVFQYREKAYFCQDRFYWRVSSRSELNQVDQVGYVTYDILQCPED

Macrophage metalloelastase, sequence (P39900 whole entry): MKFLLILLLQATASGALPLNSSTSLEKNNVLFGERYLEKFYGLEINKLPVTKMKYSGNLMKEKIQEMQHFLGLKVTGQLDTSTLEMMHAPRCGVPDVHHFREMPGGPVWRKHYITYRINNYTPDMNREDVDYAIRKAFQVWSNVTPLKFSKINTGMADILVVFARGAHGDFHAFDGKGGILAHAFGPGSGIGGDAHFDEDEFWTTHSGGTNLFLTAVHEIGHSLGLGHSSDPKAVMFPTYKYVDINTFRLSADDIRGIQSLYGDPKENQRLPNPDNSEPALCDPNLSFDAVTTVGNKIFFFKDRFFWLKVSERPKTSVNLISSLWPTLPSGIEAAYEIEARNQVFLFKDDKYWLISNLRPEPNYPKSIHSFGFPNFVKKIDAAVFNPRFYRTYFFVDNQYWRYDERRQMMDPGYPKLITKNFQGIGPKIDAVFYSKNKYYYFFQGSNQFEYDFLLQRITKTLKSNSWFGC
Stromelysin-1, sequence (P08254 whole entry): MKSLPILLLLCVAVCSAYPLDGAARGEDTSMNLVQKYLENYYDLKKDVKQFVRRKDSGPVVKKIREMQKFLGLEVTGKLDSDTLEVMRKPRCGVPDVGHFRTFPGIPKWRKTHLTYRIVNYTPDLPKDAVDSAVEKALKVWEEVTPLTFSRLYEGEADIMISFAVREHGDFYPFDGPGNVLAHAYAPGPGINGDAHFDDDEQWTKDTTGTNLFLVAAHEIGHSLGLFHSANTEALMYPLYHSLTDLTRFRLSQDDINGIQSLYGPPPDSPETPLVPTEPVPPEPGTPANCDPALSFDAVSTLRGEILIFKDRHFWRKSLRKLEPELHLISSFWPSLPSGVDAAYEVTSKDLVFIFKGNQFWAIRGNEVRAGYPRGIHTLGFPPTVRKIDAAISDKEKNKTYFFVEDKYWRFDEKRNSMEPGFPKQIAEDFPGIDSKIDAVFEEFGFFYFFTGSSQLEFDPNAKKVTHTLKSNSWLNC
72 kDa type IV collagenase, sequence (P08253 whole entry): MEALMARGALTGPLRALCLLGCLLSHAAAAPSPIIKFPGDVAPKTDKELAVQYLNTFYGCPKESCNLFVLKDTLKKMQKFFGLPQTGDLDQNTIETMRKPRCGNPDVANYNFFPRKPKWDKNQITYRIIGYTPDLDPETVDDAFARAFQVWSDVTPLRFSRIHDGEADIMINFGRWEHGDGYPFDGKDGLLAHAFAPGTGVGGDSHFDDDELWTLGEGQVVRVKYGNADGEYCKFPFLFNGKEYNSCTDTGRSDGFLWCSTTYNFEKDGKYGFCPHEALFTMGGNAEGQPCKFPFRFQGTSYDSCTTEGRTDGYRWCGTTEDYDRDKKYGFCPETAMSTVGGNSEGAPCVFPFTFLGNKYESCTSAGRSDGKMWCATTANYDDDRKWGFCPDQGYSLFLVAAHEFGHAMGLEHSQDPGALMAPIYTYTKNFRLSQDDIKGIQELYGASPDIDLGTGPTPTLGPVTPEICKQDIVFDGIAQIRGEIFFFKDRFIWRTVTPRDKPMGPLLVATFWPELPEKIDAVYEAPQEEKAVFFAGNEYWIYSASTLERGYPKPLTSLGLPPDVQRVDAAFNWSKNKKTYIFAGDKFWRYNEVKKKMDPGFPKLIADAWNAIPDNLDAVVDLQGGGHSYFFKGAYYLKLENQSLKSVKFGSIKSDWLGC
Stromelysin-2, sequence (P09238 whole entry): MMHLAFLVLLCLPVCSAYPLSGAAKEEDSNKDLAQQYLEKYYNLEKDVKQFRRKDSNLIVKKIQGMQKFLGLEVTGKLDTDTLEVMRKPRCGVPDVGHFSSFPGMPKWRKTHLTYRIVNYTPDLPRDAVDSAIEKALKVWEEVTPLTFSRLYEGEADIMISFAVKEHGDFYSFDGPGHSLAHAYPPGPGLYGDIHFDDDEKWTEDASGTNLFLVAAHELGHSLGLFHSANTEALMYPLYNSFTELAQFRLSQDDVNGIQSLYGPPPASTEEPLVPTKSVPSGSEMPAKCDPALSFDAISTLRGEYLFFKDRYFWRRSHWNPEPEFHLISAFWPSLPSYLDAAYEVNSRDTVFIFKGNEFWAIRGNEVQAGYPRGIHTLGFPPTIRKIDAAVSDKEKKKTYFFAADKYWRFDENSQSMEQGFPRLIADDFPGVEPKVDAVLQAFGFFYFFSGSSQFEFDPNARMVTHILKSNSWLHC
Neutrophil collagenase, sequence (P22894 whole entry): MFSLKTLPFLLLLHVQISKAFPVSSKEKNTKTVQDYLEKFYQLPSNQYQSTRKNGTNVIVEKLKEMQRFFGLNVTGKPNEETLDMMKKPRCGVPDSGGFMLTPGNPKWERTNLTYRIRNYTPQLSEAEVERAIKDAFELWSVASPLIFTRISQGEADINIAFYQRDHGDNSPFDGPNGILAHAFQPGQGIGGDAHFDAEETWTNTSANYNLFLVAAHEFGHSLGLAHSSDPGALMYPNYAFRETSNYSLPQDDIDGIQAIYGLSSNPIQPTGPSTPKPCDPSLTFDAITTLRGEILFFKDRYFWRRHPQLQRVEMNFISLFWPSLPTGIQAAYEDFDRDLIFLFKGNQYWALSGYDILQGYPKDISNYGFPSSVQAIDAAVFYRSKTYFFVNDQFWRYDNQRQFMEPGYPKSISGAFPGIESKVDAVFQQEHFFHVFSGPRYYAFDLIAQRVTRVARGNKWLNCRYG

Compound: NC(=O)CC[C@H](NC(=O)CCc1ccc(-c2cc(-c3ccccc3)cs2)cc1)C(=O)N[C@@H](CCC(=O)O)C(N)=O
- Ki [1]: > 10 µM
- Ki [2]: 0.317 µM
- Ki [3]: > 10 µM
- Ki [4]: > 10 µM
- Ki [5]: > 10 µM
- Ki [6]: > 1 µM
- Ki [7]: > 5 µM
- Ki [8]: > 5 µM
